Structures can show the parent of a compound that is named as a salt.
Columns and labels:
LSECs = conditions: known from the literature; cited from earlier work
[1] = established in previous literature; basis for dosing up to 100xCmax; read-out: Cmax (the maximum plasma concentration); cited from earlier work
[2] = test system: tri-cultures of hepatocytes with 3T3-J2 fibroblasts and either liver sinusoidal endothelial cells (LSECs) or human umbilical vein endothelial cells (HUVECs); assay: Drug toxicity screen: albumin secretions in hepatocyte/fibroblast/endothelia tri-cultures; conditions: azathioprine 100x and 50xCmax, dacarbazine 100xCmax, monocrotaline 100xCmax; 6 days, serum-free media; tri-cultures with LSECs or HUVECs compared with hepatocyte/3T3-J2 co-cultures
Description: Tissue culture polystyrene 24-well plates (Corning® Life Sciences) were coated for 2 hours with 25 μg/mL rat tail collagen-I (Corning® Life Sciences) and rinsed twice with sterile water. […] Cryopreserved PHHs after processing were seeded at a density of 6.67×10^5 cells/mL into collagen micropatterned wells (300 μL/well). After allowing 4-5 hours for cellular attachment and spreading onto collagen-coated islands, wells were washed 3× in DMEM base medium to remove unattached cells, leaving ˜3×10^4 PHHs per well in 24-well format (˜90 islands/well). Cultures in the co-planar arrangement were backfilled with fibronectin (2 μg/cm^2) before endothelia and 3T3-J2 fibroblasts were seeded 12-18 hours later and allowed to fill the remaining area surrounding the PHH islands. The hepatocyte:endothelial ratio was chosen to match the physiologic ratio of 5 hepatocytes (3×10^4 per well) to 1 endothelium (6×10^3 per well), and 3T3-J2 fibroblasts were added to bring the total stromal cell count to 9×10^4 cells per well. Cultures in the layered configuration were seeded with 9×10^4 3T3-J2 fibroblasts per well 12-18 hours after seeding PHHs to fill in remaining areas, overlaid with 250 μg/mL Matrigel® (Corning® Life Sciences), and then seeded with 6×10^3 endothelia per well the following day. […]
Hepatic morphological, functionality, and health assessments. The morphology of MPCCs was monitored using an EVOS® FL cell imaging system (Life Technologies) with standard 4×, 10×, and 20× phase contrast objectives. CYP3A4 activity in MPCCs was measured using the luminescence-based luciferin-IPA assay from Promega® (Madison, WI) per manufacturer's instructions. CYP2A6 was evaluated by treating the cultures with 50 μM coumarin for 1 hour and measuring the production of the metabolite 7-hydroxycoumarin. Albumin secretions were assessed with an enzyme-linked immunosorbent assay (ELISA) with horseradish peroxidase detection and 3,3′,5,5′-tetramethylbenzidine as the substrate. Urea production was measured via a colorimetric endpoint analysis with diacetylmonoxime, acid, and heat (Stanbio® Labs, Boerne, TX). […]

SMILES: CCN(CC)CCOc1ccc(C(=C(Cl)c2ccccc2)c2ccccc2)cc1 [clomiphene citrate]
- Toxicity specific to LSECs rather than hepatocytes (LSECs): toxicity specific to LSECs rather than hepatocytes

SMILES: C[C@H]1C(=O)O[C@@H]2CCN3CC=C(COC(=O)[C@](C)(O)[C@]1(C)O)[C@H]23 [monocrotaline]
- Cmax [1]: 10 µM
- Toxicity specific to LSECs rather than hepatocytes (LSECs): toxicity specific to LSECs rather than hepatocytes
- Albumin secretions (drug toxicity), normalized to DMSO-only controls [2]: more responsive to drug toxicity

SMILES: Cn1cnc([N+](=O)[O-])c1Sc1ncnc2nc[nH]c12 [azathioprine]
- Cmax [1]: 3.61 µM
- Toxicity specific to LSECs rather than hepatocytes (LSECs): toxicity specific to LSECs rather than hepatocytes
- Albumin secretions (drug toxicity), normalized to DMSO-only controls [2]: more responsive to drug toxicity

SMILES: CN(C)/N=N/c1[nH]cnc1C(N)=O [dacarbazine]
- Cmax [1]: 43.9 µM
- Toxicity specific to LSECs rather than hepatocytes (LSECs): toxicity specific to LSECs rather than hepatocytes
- Albumin secretions (drug toxicity), normalized to DMSO-only controls [2]: more responsive to drug toxicity
